Measured values taken from ChEMBL document CHEMBL5113427, “Bioevaluation of a dual PI3K/HDAC inhibitor for the treatment of diffuse large B-cell lymphoma” (Bioorg Med Chem Lett, 2022).
Active and inactive are the calls of the source. The rule behind the calls is not given here.

What was measured:
[1] = system: DOHH-2; experiment: Antiproliferative activity against human DOHH-2 cells measured after 4 days by Cell Titer Glo Luminescent Cell Viability Assay; type: functional, cell-based; settings: DOHH-2, 96 h
[2] = Antiproliferative activity against human HBL1 cells measured after 4 days by Cell Titer Glo Luminescent Cell Viability Assay; type: functional, cell-based; settings: HBL1, 96 h
[3] = system: KARPAS-422; experiment: Antiproliferative activity against human KARPAS-422 cells measured after 4 days by Cell Titer Glo Luminescent Cell Viability Assay; type: functional, cell-based; settings: KARPAS-422, 96 h
[4] = system: OCI-Ly3; experiment: Antiproliferative activity against human OCILY3 cells measured after 4 days by Cell Titer Glo Luminescent Cell Viability Assay; type: functional, cell-based; settings: OCI-Ly3, 96 h
[5] = system: OCI-Ly7; experiment: Antiproliferative activity against human OCILY7 cells measured after 4 days by Cell Titer Glo Luminescent Cell Viability Assay; type: functional, cell-based; settings: OCI-Ly7, 96 h
[6] = system: OCI-LY19; experiment: Antiproliferative activity against human OCILY19 cells measured after 4 days by Cell Titer Glo Luminescent Cell Viability Assay; type: functional, cell-based; settings: OCI-LY19, 96 h
[7] = system: Pfeiffer; experiment: Antiproliferative activity against human Pfeiffer cells measured after 4 days by Cell Titer Glo Luminescent Cell Viability Assay; type: functional, cell-based; settings: 96 h
[8] = system: SUD4; experiment: Antiproliferative activity against human SU-DHL-4 cells measured after 4 days by Cell Titer Glo Luminescent Cell Viability Assay; type: functional, cell-based; settings: SU-DHL-4, 96 h
[9] = system: SU-DHL-5; experiment: Antiproliferative activity against human SU-DHL-5 cells measured after 4 days by Cell Titer Glo Luminescent Cell Viability Assay; type: functional, cell-based; settings: SU-DHL-5, 96 h
[10] = system: SU-DHL-6; experiment: Antiproliferative activity against human SU-DHL-6 cells measured after 4 days by Cell Titer Glo Luminescent Cell Viability Assay; type: functional, cell-based; settings: SU-DHL-6, 96 h
[11] = system: SU-DHL-8; experiment: Antiproliferative activity against human SU-DHL-8 cells measured after 4 days by Cell Titer Glo Luminescent Cell Viability Assay; type: functional, cell-based; settings: SU-DHL-8, 96 h
[12] = system: SU-DHL10; experiment: Antiproliferative activity against human SU-DHL-10 cells measured after 4 days by Cell Titer Glo Luminescent Cell Viability Assay; type: functional, cell-based; settings: SU-DHL10, 96 h
[13] = system: Toledo; experiment: Antiproliferative activity against human Toledo cells measured after 4 days by Cell Titer Glo Luminescent Cell Viability Assay; type: functional, cell-based; settings: 96 h
[14] = system: U2932; experiment: Antiproliferative activity against human U2932 cells measured after 4 days by Cell Titer Glo Luminescent Cell Viability Assay; type: functional, cell-based; settings: U2932, 96 h
[15] = system: WSUDLCL2; experiment: Antiproliferative activity against human WSUDLCL2 cells measured after 4 days by Cell Titer Glo Luminescent Cell Viability Assay; type: functional, cell-based; settings: WSUDLCL2, 96 h
[16] = system: WSU-NHL; experiment: Antiproliferative activity against human WSU-NHL cells measured after 4 days by Cell Titer Glo Luminescent Cell Viability Assay; type: functional, cell-based; settings: 96 h
[17] = system: DOHH-2; experiment: Induction of cell cycle arrest in human DOHH-2 cells assessed as accumulation at S phase at 0.01 to 1 uM measured by flow cytometry analysis; type: functional, cell-based; settings: dose 0.01-1 µM, DDE = dose-dependent effect
[18] = system: DOHH-2; experiment: Induction of apoptosis in human DOHH-2 cells at 0.01 to 1 uM measured by flow cytometry analysis; type: functional, cell-based; settings: dose 0.01-1 µM, DDE = dose-dependent effect
[19] = system: OCI-Ly3; experiment: Induction of apoptosis in human OCILY3 cells at 0.01 to 1 uM measured by flow cytometry analysis; type: functional, cell-based; settings: dose 0.01-1 µM, DDE = dose-dependent effect
[20] = system: DOHH-2; experiment: Induction of apoptosis in human DOHH-2 cells assessed as upregulation of cleaved-PARP at 0.01 to 1 uM measured by Western blot analysis; type: functional, cell-based; settings: dose 0.01-1 µM
[21] = system: DOHH-2; experiment: Induction of apoptosis in human DOHH-2 cells assessed as upregulation of cleaved-caspase3 at 0.01 to 1 uM measured by Western blot analysis; type: functional, cell-based; settings: dose 0.01-1 µM
[22] = system: OCI-Ly3; experiment: Induction of apoptosis in human OCILY3 cells assessed as upregulation of cleaved-PARP at 0.01 to 1 uM measured by Western blot analysis; type: functional, cell-based; settings: dose 0.01-1 µM
[23] = system: OCI-Ly3; experiment: Induction of apoptosis in human OCILY3 cells assessed as upregulation of cleaved-caspase3 at 0.01 to 1 uM measured by Western blot analysis; type: functional, cell-based; settings: dose 0.01-1 µM
[24] = target: Phosphatidylinositol 4,5-bisphosphate 3-kinase catalytic subunit alpha isoform (Homo sapiens) (UniProt P42336); experiment: Inhibition of PI3Kalpha in human DOHH-2 cells assessed as decrease in AKT phosphorylation at 0.01 to 1 uM measured by western blot analysis; type: cell-based; settings: dose 0.01-1 µM
Phosphatidylinositol 4,5-bisphosphate 3-kinase catalytic subunit alpha isoform (Homo sapiens), sequence (P42336 whole entry, canonical isoform): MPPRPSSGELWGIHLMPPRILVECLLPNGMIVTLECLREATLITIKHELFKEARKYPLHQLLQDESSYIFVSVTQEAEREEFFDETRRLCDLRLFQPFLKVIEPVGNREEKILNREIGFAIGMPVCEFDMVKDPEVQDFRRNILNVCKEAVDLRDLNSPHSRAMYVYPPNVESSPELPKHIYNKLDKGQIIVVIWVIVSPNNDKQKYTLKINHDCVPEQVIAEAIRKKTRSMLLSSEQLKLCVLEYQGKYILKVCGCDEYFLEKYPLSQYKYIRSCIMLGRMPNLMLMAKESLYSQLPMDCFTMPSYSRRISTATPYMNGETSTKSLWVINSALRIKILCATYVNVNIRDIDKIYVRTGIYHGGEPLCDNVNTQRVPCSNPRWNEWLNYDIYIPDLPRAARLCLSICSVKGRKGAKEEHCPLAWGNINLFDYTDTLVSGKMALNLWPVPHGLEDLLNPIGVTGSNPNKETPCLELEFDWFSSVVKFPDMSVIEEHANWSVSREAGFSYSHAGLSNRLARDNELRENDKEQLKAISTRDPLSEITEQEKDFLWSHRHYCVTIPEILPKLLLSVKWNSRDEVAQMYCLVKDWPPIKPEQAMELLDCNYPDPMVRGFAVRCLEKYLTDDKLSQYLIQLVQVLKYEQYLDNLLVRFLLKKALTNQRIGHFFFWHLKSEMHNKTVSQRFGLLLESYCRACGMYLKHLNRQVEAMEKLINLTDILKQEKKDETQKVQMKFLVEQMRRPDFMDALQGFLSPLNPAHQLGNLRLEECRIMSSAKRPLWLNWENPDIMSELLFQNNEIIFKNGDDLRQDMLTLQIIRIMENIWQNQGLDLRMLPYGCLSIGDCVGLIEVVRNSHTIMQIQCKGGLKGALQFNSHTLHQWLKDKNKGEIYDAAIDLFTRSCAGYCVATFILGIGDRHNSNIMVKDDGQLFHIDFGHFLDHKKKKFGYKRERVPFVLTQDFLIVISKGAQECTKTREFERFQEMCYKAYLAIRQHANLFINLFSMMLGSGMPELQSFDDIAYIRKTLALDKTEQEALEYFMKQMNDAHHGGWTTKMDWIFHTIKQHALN

[25] = target: Phosphatidylinositol 4,5-bisphosphate 3-kinase catalytic subunit alpha isoform (Homo sapiens) (UniProt P42336); experiment: Inhibition of PI3Kalpha in human OCILY3 cells assessed as decrease in AKT phosphorylation at Ser473 residue at 0.01 to 1 uM measured by western blot analysis; type: cell-based; settings: dose 0.01-1 µM
[26] = target: Phosphatidylinositol 4,5-bisphosphate 3-kinase catalytic subunit alpha isoform (Homo sapiens) (UniProt P42336); experiment: Inhibition of PI3Kalpha in human OCILY3 cells assessed as decrease in AKT phosphorylation at Thr308 residue at 0.01 to 1 uM measured by western blot analysis; type: cell-based; settings: dose 0.01-1 µM
[27] = target: T1, Histone deacetylase (Homo sapiens) (UniProt Q13547+O15379+Q9UBN7+Q92769+Q9UQL6+Q8WUI4+Q9BY41+Q96DB2+P56524+Q9UKV0+Q969S8); experiment: Inhibition of HDAC in human DOHH-2 cells assessed as Down-regulation of STAT3 phosphorylation at Y705 residue at 0.01 to 1 uM measured by Western blot analysis; type: cell-based; settings: dose 0.01-1 µM
[28] = target: T1, Histone deacetylase (Homo sapiens); experiment: Inhibition of HDAC in human OCILY3 cells assessed as Down-regulation of STAT3 phosphorylation at Y705 residue at 0.01 to 1 uM measured by Western blot analysis; type: cell-based; settings: dose 0.01-1 µM
[29] = target: T1, Histone deacetylase (Homo sapiens); experiment: Inhibition of HDAC in human DOHH-2 cells assessed as effect on pS6 levels at 0.01 to 1 uM measured by Western blot analysis; type: cell-based; settings: dose 0.01-1 µM
[30] = target: T1, Histone deacetylase (Homo sapiens); experiment: Inhibition of HDAC in human OCILY3 cells assessed as effect on pS6 levels at 0.01 to 1 uM measured by Western blot analysis; type: cell-based; settings: dose 0.01-1 µM
[31] = target: T1, Histone deacetylase (Homo sapiens); experiment: Inhibition of HDAC in human DOHH-2 cells assessed as increase in Ac-H3 levels at 0.01 to 1 uM measured by Western blot analysis; type: cell-based; settings: dose 0.01-1 µM
[32] = target: T1, Histone deacetylase (Homo sapiens); experiment: Inhibition of HDAC in human OCILY3 cells assessed as increase in Ac-H3 levels at 0.01 to 1 uM measured by Western blot analysis; type: cell-based; settings: dose 0.01-1 µM
[33] = target: T1, Histone deacetylase (Homo sapiens); experiment: Inhibition of HDAC in human DOHH-2 cells assessed as increase in Ac-p53 levels at 0.01 to 1 uM measured by Western blot analysis; type: cell-based; settings: dose 0.01-1 µM
[34] = target: T1, Histone deacetylase (Homo sapiens); experiment: Inhibition of HDAC in human OCILY3 cells assessed as increase in Ac-p53 levels at 0.01 to 1 uM measured by Western blot analysis; type: cell-based; settings: dose 0.01-1 µM
[35] = target: Phosphatidylinositol 4,5-bisphosphate 3-kinase catalytic subunit alpha isoform (Homo sapiens) (UniProt P42336); experiment: Inhibition of PI3Kalpha in human DOHH-2 cells assessed as decrease in AKT phosphorylation at 0.5 to 1 hrs measured by western blot analysis; type: cell-based; settings: time 0.5-1 hrs
[36] = target: Phosphatidylinositol 4,5-bisphosphate 3-kinase catalytic subunit alpha isoform (Homo sapiens) (UniProt P42336); experiment: Inhibition of PI3Kalpha in human OCILY3 cells assessed as decrease in AKT phosphorylation at 0.5 to 1 hrs measured by western blot analysis; type: cell-based; settings: time 0.5-1 hrs
[37] = target: T1, Histone deacetylase (Homo sapiens); experiment: Inhibition of HDAC in human DOHH-2 cells assessed as down-regulation of STAT3 phosphorylation at Y705 residue at 0.5 to 12 hrs measured by Western blot analysis; type: cell-based; settings: time 0.5-12 hrs
[38] = target: T1, Histone deacetylase (Homo sapiens); experiment: Inhibition of HDAC in human OCILY3 cells assessed as down-regulation of STAT3 phosphorylation at Y705 residue at 0.5 to 12 hrs measured by Western blot analysis; type: cell-based; settings: time 0.5-12 hrs
[39] = target: T1, Histone deacetylase (Homo sapiens); experiment: Inhibition of HDAC in human DOHH-2 cells assessed as decrease in p-S6 level at 0.5 to 12 hrs measured by Western blot analysis; type: cell-based; settings: time 0.5-12 hrs
[40] = target: T1, Histone deacetylase (Homo sapiens); experiment: Inhibition of HDAC in human OCILY3 cells assessed as decrease in p-S6 level at 0.5 to 12 hrs measured by Western blot analysis; type: cell-based; settings: time 0.5-12 hrs
[41] = target: T1, Histone deacetylase (Homo sapiens); experiment: Inhibition of HDAC in human DOHH-2 cells assessed as […] level at 0.5 to 12 hrs measured by Western blot analysis; type: cell-based; settings: time 0.5-12 hrs
[42] = target: T1, Histone deacetylase (Homo sapiens); experiment: Inhibition of HDAC in human OCILY3 cells assessed as […] level at 0.5 to 12 hrs measured by Western blot analysis; type: cell-based; settings: time 0.5-12 hrs
[43] = system: SUD4; experiment: Antitumour activity against CM-Dil labeled human SU-DHL-4 cells xenografted in zebrafish embryo assessed as decrease in tumor growth at 3 uM measured by fluorescence based assay; type: functional, cell-based
[44] = system: DOHH-2; experiment: Induction of cell cycle arrest in human DOHH-2 cells assessed as accumulation at S phase measured by flow cytometry analysis; type: functional, cell-based
[45] = system: DOHH-2; experiment: Induction of cell cycle arrest in human DOHH-2 cells assessed as accumulation at G2/M phase measured by flow cytometry analysis; type: functional, cell-based
[46] = system: DOHH-2; experiment: Induction of cell cycle arrest in human DOHH-2 cells assessed as accumulation at G2/M phase in presence of pictilisib measured by flow cytometry analysis; type: functional, cell-based
[47] = system: DOHH-2; experiment: Induction of apoptosis in human DOHH-2 cells measured by flow cytometry analysis; type: functional, cell-based
[48] = system: OCI-Ly3; experiment: Induction of apoptosis in human OCILY3 cells measured by flow cytometry analysis; type: functional, cell-based
[49] = target: T1, Histone deacetylase (Homo sapiens); experiment: Inhibition of HDAC in human DOHH-2 cells assessed as Down-regulation of STAT3 phosphorylation at Y705 residue at 10 uM measured by Western blot analysis; type: cell-based
[50] = target: T1, Histone deacetylase (Homo sapiens); experiment: Inhibition of HDAC in human OCILY3 cells assessed as Down-regulation of STAT3 phosphorylation at Y705 residue at 10 uM measured by Western blot analysis; type: cell-based
[51] = target: T1, Histone deacetylase (Homo sapiens); experiment: Inhibition of HDAC in human DOHH-2 cells assessed as effect on pS6 levels at 10 uM measured by Western blot analysis; type: cell-based
[52] = target: T1, Histone deacetylase (Homo sapiens); experiment: Inhibition of HDAC in human OCILY3 cells assessed as effect on pS6 levels at 10 uM measured by Western blot analysis; type: cell-based

Structure (SMILES): COc1ccc(-c2cc(OCCN(C)c3ncc(C(=O)NO)cn3)c3ncnc(C)c3c2)cn1
- IC50 [1]: 7.7 nM
- IC50 [2]: 7.9 nM
- IC50 [3]: 21 nM
- IC50 [4]: 3.6 nM
- IC50 [5]: 5.6 nM
- IC50 [6]: 19.2 nM
- IC50 [7]: 5.3 nM
- IC50 [8]: 7.6 nM
- IC50 [9]: 3.6 nM
- IC50 [10]: 6.5 nM
- IC50 [11]: 6.4 nM
- IC50 [12]: 9.7 nM
- IC50 [13]: 5.6 nM
- IC50 [14]: 17.7 nM
- IC50 [15]: 16 nM
- IC50 [16]: 5.2 nM
- Activity [17]: Dde
- Activity [18]: Dde
- Activity [19]: Dde
- Activity [20]: Active
- Activity [21]: Active
- Activity [22]: Active
- Activity [23]: Active
- inhibition [24]: Active
- inhibition [25]: Active
- inhibition [26]: Active
- inhibition [27]: Active
- inhibition [28]: Active
- inhibition [29]: Active
- inhibition [30]: Active
- inhibition [31]: Active
- inhibition [32]: Active
- inhibition [33]: Active
- inhibition [34]: Active
- inhibition [35]: Active
- inhibition [36]: Active
- inhibition [37]: Active
- inhibition [38]: Active
- inhibition [39]: Active
- inhibition [40]: Active
- inhibition [41]: Active
- inhibition [42]: Active
- Activity [43]: Active

Structure (SMILES): O=C(CCCCCCC(=O)Nc1ccccc1)NO
- Activity [44]: Active
- Activity [45]: Active
- Activity [46]: Active
- Activity [47]: Active
- Activity [48]: Active

Structure (SMILES): CS(=O)(=O)N1CCN(Cc2cc3nc(-c4cccc5[nH]ncc45)nc(N4CCOCC4)c3s2)CC1
- Activity [44]: Active
- Activity [45]: Active
- Activity [47]: Active
- Activity [48]: Active
- inhibition [49]: Active
- inhibition [50]: Active
- inhibition [51]: Active
- inhibition [52]: Active
